Where no end group is shown, it is not given here.
Key:
HLA-A*0301 = HLA-A*0301 (Homo sapiens, UniProt P04439); assay: MHC-peptide binding assay, inhibition of binding of radiolabeled standard peptide; conditions: read-out: MHC binding affinity HLA-A*0301
Text: (§1) Assays were as described.

HLA-A*1101 = HLA-A*1101 (Homo sapiens, UniProt P04439, A114D/D185E/E176A/F33Y/L180Q/S129P/T187R); assay: as above; conditions: unit not given in Table 1 (same values in Table 3 as IC50 nM), newly identified peptides, read-out: Affinity HLA-A*1101
Text: as §1

HLA-A*3001 = HLA-A*3001 (Homo sapiens, UniProt P04439, D140H/D185E/E176W/F33S/G80R/H175R/K168Q/R138E/R41S); assay: as above; conditions: read-out: MHC binding affinity HLA-A*3001
Sequence of HLA-A*3001 (P04439 25-365 limits assumed, stated change not applied): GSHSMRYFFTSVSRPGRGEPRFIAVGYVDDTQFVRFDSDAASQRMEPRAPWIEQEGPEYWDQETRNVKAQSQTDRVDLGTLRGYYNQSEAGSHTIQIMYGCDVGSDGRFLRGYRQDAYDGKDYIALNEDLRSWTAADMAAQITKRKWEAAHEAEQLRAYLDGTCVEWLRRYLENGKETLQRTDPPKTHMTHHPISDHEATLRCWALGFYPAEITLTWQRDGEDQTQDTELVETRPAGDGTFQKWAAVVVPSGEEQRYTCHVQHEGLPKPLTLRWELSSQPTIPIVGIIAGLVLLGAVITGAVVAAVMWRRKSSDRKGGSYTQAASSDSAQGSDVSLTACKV
Text: as §1

HLA-A*3101 = HLA-A*3101 (Homo sapiens, UniProt P04439, A270S/D185E/E176V/E277Q/F33T/G231S/G80R/H175R/I121M/I218V/I322F/K168Q/L300P/L318F/M331R/P217A/Q94H/R138Q/T323A/T345S/T97I/V358M); assay: as above; conditions: read-out: MHC binding affinity HLA-A*3101
Text: as §1

HLA-A*3301 = HLA-A*3301 (Homo sapiens, UniProt P04439, A270S/D185E/E176V/E277Q/E87N/F33T/G231S/H175R/I121M/I218V/I322F/K168Q/K210R/L300P/L318F/M331R/P217A/Q86R/Q94H/R138Q/T323A/T345S/T97I/V358M/Y195H); assay: as above; conditions: read-out: MHC binding affinity HLA-A*3301
Text: as §1

HLA-A*6801 = HLA-A*6801 (Homo sapiens, UniProt P04439, A269V/D185E/E176V/E277Q/E87N/F33Y/G231S/I121M/I166T/I218V/L180W/L300P/L318F/N151K/P208A/P217A/Q86R/R169H/T345S); assay: as above; conditions: read-out: MHC binding affinity HLA-A*6801
Text: as §1

[1] = test system: splenocytes of HLA-A*1101 transgenic mice; assay: Ex vivo IFN-γ ELISpot assay with splenocytes of immunized HLA-A*1101 transgenic mice; assay type: in vivo; conditions: Figure 3b; mice immunized with mixture of peptides and adjuvants compared with LpKS9-AM9-RS9
Protocol: To evaluate peptide immunogenicity, HLA-A*1101 transgenic mice were inoculated subcutaneously (s.c.) at the base of the tail using a 30-gauge needle with single peptides or a mixture of CD8^+ T cell peptides (50 μg of each peptide per mouse) and PADRE ([…]) emulsified in 20 μg of GLA-SE (TLR4 agonist) with or without Pam2Cys. Pam2Cys concentration was 5 mg/ml. For immunization with lipopeptides, HLA-A*1101 mice received 20 nmol lipopeptide dissolved in PBS or emulsified in GLA-SE. As controls, mice were injected with PBS or PBS/GLA-SE. For the lipopeptide immunizations, the mice were vaccinated twice at intervals of three weeks. For the peptide immunizations, mice were immunized three times at intervals of two weeks. For challenge studies, mice were immunized with peptide emulsions and challenged intraperitoneally (i.p.) 14 days post-immunization using 10,000 Type II parasites.
Mice were euthanized 7 to 14 days after immunization. […]
PBMC were obtained, HLA haplotype was determined, and they were processed and cryopreserved as described. […] Results were expressed as number of spot forming cells (SFCs) per 10^6 PBMCs or per 10^6 murine splenocytes.
Two-tailed P values < 0.05 were considered statistically significant. […] The experiment in Figure 7b determined immune response and imaged mice in parallel.

For AVVSLLRLLK, which IC50 (HLA-A*0301) is on record?
Its IC50 is 17 nM.

What about the IC50 (HLA-A*1101) of the same sequence?
The IC50 was 34 nM.

And the IC50 (HLA-A*3001)?
Its IC50 is 8.1 nM.

And the IC50 (HLA-A*3101)?
The IC50 was 1300 nM.

What about the IC50 (HLA-A*3301) of the same sequence?
The IC50 was 1100 nM.

What about the IC50 (HLA-A*6801) of the same sequence?
Its IC50 is 94 nM.

How did the “IFN-γ production on stimulation of spleen cells by the peptide” value [1] turn out when RSFKDLLKK was run?
Its value is “not significant”.

How did the IC50 (HLA-A*0301) turn out when STFWPCLLR was run?
The IC50 was 22 nM.

What about the IC50 (HLA-A*1101) of the same sequence?
Its IC50 is 10 nM.

And the IC50 (HLA-A*3001)?
Its IC50 is 1270 nM.

And the IC50 (HLA-A*3101)?
Its IC50 is 1.2 nM.

And the IC50 (HLA-A*3301)?
Its IC50 is 3.4 nM.

And the IC50 (HLA-A*6801)?
The IC50 was 0.97 nM.

What does the source list for SSAYVFSVK?
IC50 (HLA-A*0301): 12 nM; IC50 (HLA-A*1101): 10 nM; IC50 (HLA-A*3001): 1830 nM; IC50 (HLA-A*3101): 97 nM; IC50 (HLA-A*3301): 181 nM; IC50 (HLA-A*6801): 2.1 nM

Reference: PMC3009956, “Human immunome, bioinformatic analyses using HLA supermotifs and the parasite genome, binding assays, studies of human T cell responses, and immunization of HLA-A*1101 transgenic mice including novel adjuvants provide a foundation for HLA-A03 restricted CD8^+T cell epitope based, adjuvanted vaccine …” (Immunome Research, 2010)
